Reference: PubChem BioAssay AID504388 (Southern Research Specialized Biocontainment Screening …, 2011)
The source made the active and inactive calls. The rule behind the calls is not given here.

These compounds were tested on host cell cytotoxicity, % cell control, HIV fusion counter-screen (assay: host cell toxicity in fusion assay cells, dose response, cytotoxicity control for CCR5-tropic HIV-1 fusion inhibitors (AID 504388)).

| SMILES | CC50 |
| --- | --- |
| Cc1c2c(=O)n(-c3nc4ccccc4s3)nc-2cc(O)n1Cc1cccs1 | 42.5 µM |
| Cc1c2c(=O)n(-c3nc4ccccc4s3)nc-2cc(O)n1Cc1ccccc1Cl | 23.5 µM |
| COc1ccccc1Cn1c(O)cc2nn(-c3nc4ccccc4s3)c(=O)c-2c1C | 36.6 µM |
| O=C(O)c1ccc(C[n+]2c(-c3ccc([N+](=O)[O-])cc3)csc2Nc2ccccc2)cc1 | > 100 µM (inactive) |
| CCOC(=O)C1=C(C)N=c2s/c(=C\c3ccc(OCC(=O)O)cc3)c(=O)n2C1c1ccc(Cl)cc1 (centres undefined) | 38.3 µM |
| O=C(O)c1ccc(C2Nc3ccc(S(=O)(=O)Nc4cc(Cl)ccc4Cl)cc3C3C=CCC32)cc1 (centres undefined) | 85.6 µM |
| CCOC(=O)C1=C(c2ccccc2)N=c2s/c(=C\c3ccc(OCC(=O)O)cc3)c(=O)n2C1c1cccc(OC)c1 (centres undefined) | 51.5 µM |
| COc1cccc(C2C(C(=O)Nc3ccccc3)=C(C)N=c3sc(=Cc4ccc(OCC(=O)O)cc4)c(=O)n32)c1 (centres undefined) | > 100 µM (inactive) |
| Cc1ccc(-n2cccc2/C=C2/C(=N)N3C(=NC2=O)SN=C3S(C)(=O)=O)cc1C | 32.7 µM |
| CCOC(=O)C1=C(C)N=c2s/c(=C\c3ccc(OCC(=O)O)cc3)c(=O)n2C1c1ccc(OC)c(OCC)c1 (centres undefined) | 71.9 µM |
| CS(=O)(=O)C1=NSC2=NC(=O)/C(=C\c3cccn3-c3cccc(F)c3)C(=N)N21 | 48.5 µM |
| O=C(O)CCCN1C(=O)/C(=C\c2ccc(-c3ccc(Br)cc3)o2)SC1=S | 7.36 µM |
| Cc1c2c(=O)n(-c3nc4ccccc4s3)nc-2cc(O)n1CCc1cccs1 | > 100 µM (inactive) |
| Cc1ccc(-n2cccc2/C=C2/C(=N)N3C(=NC2=O)SN=C3S(C)(=O)=O)cc1 | 39.5 µM |
| COc1ccc(-n2cccc2/C=C2/C(=N)N3C(=NC2=O)SN=C3S(C)(=O)=O)cc1Cl | 96 µM |
| COc1ccc(CCn2c(O)cc3nn(-c4nc5ccccc5s4)c(=O)c-3c2C)cc1 | 36.4 µM |
| CCOc1ccc(-n2cccc2/C=C2/C(=N)N3C(=NC2=O)SN=C3S(C)(=O)=O)cc1 | 40.2 µM |
| O=C(O)c1ccc(C[n+]2c(-c3ccccc3)csc2Nc2ccccc2)cc1 | 75.2 µM |
| CS(=O)(=O)C1=NSC2=NC(=O)/C(=C\c3cccn3-c3ccc(Cl)c(Cl)c3)C(=N)N21 | 39.4 µM |
| Cc1c2c(=O)n(-c3nc4ccccc4s3)nc-2cc(O)n1C1CC1 | 6 µM |
| CCc1ccc(-c2ccc(/C=C3\SC(=S)N(CCCC(=O)O)C3=O)o2)cc1 | > 100 µM (inactive) |
| CCc1ccc(-n2cccc2/C=C2/C(=N)N3C(=NC2=O)SN=C3S(C)(=O)=O)cc1 | 30.7 µM |
| Cc1c2c(=O)n(-c3nc4ccccc4s3)nc-2cc(O)n1CCc1ccc(O)cc1 | 27.2 µM |
| O=C(O)CCCN1C(=O)/C(=C/c2ccc(-c3ccc(Cl)c(Cl)c3)o2)SC1=S | 18.3 µM |
| O=C(O)c1ccc([C@@H]2Nc3ccc(S(=O)(=O)Nc4cccc5ccccc45)cc3[C@@H]3C=CC[C@@H]32)cc1 | 68.9 µM |

| SMILES | CC50 |
| --- | --- |
| O=C(O)CCC(C(=O)O)N1C(=O)/C(=C\c2ccco2)SC1=S (centres undefined) | > 100 µM (inactive) |
| CCOC(=O)C1=C(C)N=c2sc(=Cc3ccc(OCC(=O)O)cc3)c(=O)n2C1c1ccc(F)cc1 (centres undefined) | 63 µM |
| CS(=O)(=O)C1=NSC2=NC(=O)/C(=C\c3cccn3-c3ccc(Cl)cc3)C(=N)N21 | 39.7 µM |
| CCOC(=O)C1=C(C)N=c2sc(=Cc3ccc(OCC(=O)O)cc3)c(=O)n2C1c1ccc(OC)cc1OC (centres undefined) | 55.8 µM |
| O=C(O)CCCN1C(=O)/C(=C\c2ccc(-c3ccc(F)cc3)o2)SC1=S | 88.2 µM |
| CS(=O)(=O)C1=NSC2=NC(=O)/C(=C\c3cccn3-c3cccc(C(F)(F)F)c3)C(=N)N21 | 53.9 µM |
| Cc1c2c(=O)n(-c3nc4ccccc4s3)nc-2cc(O)n1CCC(C)C | 36.5 µM |
| CS(=O)(=O)C1=NSC2=NC(=O)/C(=C\c3cccn3-c3ccc(F)cc3)C(=N)N21 | 36.3 µM |
| Cc1c2c(=O)n(-c3nc4ccccc4s3)nc-2cc(O)n1Cc1ccncc1 | 5.17 µM |
| Cc1c2c(=O)n(-c3nc4ccccc4s3)nc-2cc(O)n1Cc1cccnc1 | 7.3 µM |
| O=C(O)CCCN1C(=O)/C(=C/c2ccc(-c3cccc(C(F)(F)F)c3)o2)SC1=S | 92.8 µM |
| CCOC(=O)C1=C(C)N=c2sc(=Cc3ccc(OCC(=O)O)cc3)c(=O)n2C1c1ccccc1 (centres undefined) | 62.2 µM |
| Cc1c2c(=O)n(-c3nc4ccccc4s3)nc-2cc(O)n1Cc1ccc(F)cc1 | 38.5 µM |
| COc1ccccc1NS(=O)(=O)c1ccc2c(c1)C1C=CCC1C(c1ccc(C(=O)O)cc1)N2 (centres undefined) | 70.9 µM |
| O=C(O)CCCN1C(=O)/C(=C\c2ccc(-c3cccc(Cl)c3)o2)SC1=S | 51.1 µM |
| COc1cccc(-n2cccc2/C=C2/C(=N)N3C(=NC2=O)SN=C3S(C)(=O)=O)c1 | > 100 µM (inactive) |
| COc1ccc(Cn2c(O)cc3nn(-c4nc5ccccc5s4)c(=O)c-3c2C)cc1 | 39.4 µM |
| O=C(O)CCCN1C(=O)/C(=C\c2ccc(-c3ccc(Cl)cc3)o2)SC1=S | 37.5 µM |
| CS(=O)(=O)C1=NSC2=NC(=O)/C(=C\c3cccn3-c3ccc(Br)cc3)C(=N)N21 | 36.9 µM |
| CS(=O)(=O)C1=NSC2=NC(=O)/C(=C\c3cccn3-c3cc(Cl)cc(Cl)c3)C(=N)N21 | 51.9 µM |
| Nc1sc2ccccc2[n+]1Cc1ccc(C(=O)O)cc1 | > 100 µM (inactive) |
| CS(=O)(=O)C1=NSC2=NC(=O)/C(=C\c3cccn3-c3cccc(Cl)c3)C(=N)N21 | 36.5 µM |
| CC1=C(C(=O)OC(C)C)C(c2ccc(Cl)cc2)n2c(s/c(=C\c3ccc(OCC(=O)O)cc3)c2=O)=N1 (centres undefined) | > 100 µM (inactive) |
| COc1ccc(-c2ccc(/C=C3\SC(=S)N(CCCC(=O)O)C3=O)o2)cc1 | 78.6 µM |
